For this assay, the target named is human recombinant GPR65 (Homo sapiens, UniProt Q8IYL9). As to the kind of experiment: Human GPR65 cAMP HTRF antagonist assay. Type of assay: cell-based. In outline:
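Antagonism measured as suppression of the cAMP rise when pH is dropped to 7.2 (control wells pH 7.9) in 1321N1 cells stably carrying human GPR65. Cells in KRH with 1 mM IBMX and 200 μM EDTA saw compound 30 min, then acid stimulation 30 min; HTRF cAMP detection, normalised, 4-parameter logistic IC50.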
A general note: Time-resolved FRET reads energy transfer from a long-lived donor to a nearby acceptor.

The mark [1] stands for this setting: 1321N1-hrGPR65 cells, cAMP HTRF, assay pH 7.2, read-out: hGPR65 IC50 (Activity of selected compounds according to the invention).

The results in this text go back to patent US20240368173A1, “TRICYCLIC GPR65 MODULATORS” (PATHIOS THERAPEUTICS LIMITED, priority 2021, published 2024).

Molecules are shown by their SMILES. Where two headings read alike, the source gives them in different places.

As a reminder, the IC50 is the midpoint of a concentration-inhibition curve.

human recombinant GPR65, sequence (Q8IYL9 whole entry): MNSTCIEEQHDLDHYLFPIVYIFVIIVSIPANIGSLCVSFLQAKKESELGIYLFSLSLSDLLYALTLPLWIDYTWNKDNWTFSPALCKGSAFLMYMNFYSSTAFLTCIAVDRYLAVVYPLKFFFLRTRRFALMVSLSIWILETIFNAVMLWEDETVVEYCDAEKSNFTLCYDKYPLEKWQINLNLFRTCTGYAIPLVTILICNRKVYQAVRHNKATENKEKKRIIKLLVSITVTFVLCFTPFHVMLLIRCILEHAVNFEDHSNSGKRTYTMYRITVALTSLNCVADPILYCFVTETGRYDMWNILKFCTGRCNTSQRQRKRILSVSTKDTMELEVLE

Regarding `O=C(Nc1cc(Cl)c(-c2cncc(F)c2)cc1F)N1[C@H]2CC[C@@H]1c1n[nH]c(=O)cc1C2` [Compound 126, (6S,9R)-N-(5-Chloro-2-fluoro-4-(5-fluoropyridin-3-yl)phenyl)-3-oxo-3,5,6,7,8,9-hexahydro-2H-6,9-epiminocyclohepta[c]pyridazine-10-carboxamide], the IC50 was less than 0.5 µM.
Still for that read-out and setting: to `N#Cc1cncc(-c2cc(F)c(NC(=O)N3[C@H]4CC[C@@H]3c3n[nH]c(=O)cc3C4)cc2Cl)c1` [Compound 127, (6S,9R)-N-(5-Chloro-4-(5-cyanopyridin-3-yl)-2-fluorophenyl)-3-oxo-3,5,6,7,8,9-hexahydro-2H-6,9-epiminocyclohepta[c]pyridazine-10-carboxamide] belongs less than 0.5 µM.
As to `O=C(Nc1cc(Cl)c(-c2cncc(CO)c2)cc1F)N1[C@H]2CC[C@@H]1c1n[nH]c(=O)cc1C2` [Compound 128, (6S,9R)—N-(5-Chloro-2-fluoro-4-(5-(hydroxymethyl)pyridin-3-yl)phenyl)-3-oxo-3,5,6,7,8,9-hexahydro-2H-6,9-epiminocyclohepta[c]pyridazine-10-carboxamide], under setting [1], the IC50 fell in the range of 0.5 to 5 µM.
The same measure, in the same setting: to `NC(=O)c1ccc(-c2cc(F)c(NC(=O)N3[C@H]4CC[C@@H]3c3n[nH]c(=O)cc3C4)cc2Cl)cc1` [Compound 129, (6S,9R)-N-(4′-Carbamoyl-2-chloro-5-fluoro-[1,1′-biphenyl]-4-yl)-3-oxo-3,5,6,7,8,9-hexahydro-2H-6,9-epiminocyclohepta[c]pyridazine-10-carboxamide] belongs 0.5 to 5 µM; to `CNC(=O)c1ccc(-c2cc(F)c(NC(=O)N3[C@H]4CC[C@@H]3c3n[nH]c(=O)cc3C4)cc2Cl)cc1` [Compound 130, (6S,9R)-N-(2-Chloro-5-fluoro-4′-(methylcarbamoyl)-[1,1′-biphenyl]-4-yl)-3-oxo-3,5,6,7,8,9-hexahydro-2H-6,9-epiminocyclohepta[c]pyridazine-10-carboxamide], 0.5 to 5 µM.
`CS(=O)(=O)c1ccc(-c2cc(F)c(NC(=O)N3[C@H]4CC[C@@H]3c3n[nH]c(=O)cc3C4)cc2Cl)cc1` [Compound 131, (6S,9R)-N-(2-Chloro-5-fluoro-4′-(methylsulfonyl)-[1,1′-biphenyl]-4-yl)-3-oxo-3,5,6,7,8,9-hexahydro-2H-6,9-epiminocyclohepta[c]pyridazine-10-carboxamide]: the IC50 is less than 0.5 µM.
Same read-out and setting: for `CS(=O)(=O)c1ccc(-c2cc(F)c(NC(=O)N3[C@H]4CC[C@@H]3c3n[nH]c(=O)cc3C4)cc2Cl)cc1F` [Compound 132, (6S,9R)-N-(2-Chloro-3′,5-difluoro-4′-(methylsulfonyl)-[1,1′-biphenyl]-4-yl)-3-oxo-3,5,6,7,8,9-hexahydro-2H-6,9-epiminocyclohepta[c]pyridazine-10-carboxamide] the value was less than 0.5 µM.
`CN(C)Cc1cccc(-c2cc(F)c(NC(=O)N3[C@H]4CC[C@@H]3c3n[nH]c(=O)cc3C4)cc2Cl)c1` [Compound 133, (6S,9R)-N-(2-Chloro-3′-((dimethylamino)methyl)-5-fluoro-[1,1′-biphenyl]-4-yl)-3-oxo-3,5,6,7,8,9-hexahydro-2H-6,9-epiminocyclohepta[c]pyridazine-10-carboxamide]: the half-maximal inhibitory concentration (IC50) under setting [1] fell in the range of 0.5 to 5 µM.
`Cc1cc(-c2cc(F)c(NC(=O)N3[C@H]4CC[C@@H]3c3n[nH]c(=O)cc3C4)cc2Cl)ccn1` [Compound 134, (6S,9R)-N-(5-Chloro-2-fluoro-4-(2-methylpyridin-4-yl)phenyl)-3-oxo-3,5,6,7,8,9-hexahydro-2H-6,9-epiminocyclohepta[c]pyridazine-10-carboxamide]: the half-inhibitory concentration (IC50) is less than 0.5 µM.
For `O=C(Nc1cc(Cl)c(-c2cccc(CN3CCCC3)c2)cc1F)N1[C@H]2CC[C@@H]1c1n[nH]c(=O)cc1C2` [Compound 135, (6S,9R)-N-(2-Chloro-5-fluoro-3′-(pyrrolidin-1-ylmethyl)-[1,1′-biphenyl]-4-yl)-3-oxo-3,5,6,7,8,9-hexahydro-2H-6,9-epiminocyclohepta[c]pyridazine-10-carboxamide], under setting [1], the concentration for half-maximal inhibition (IC50) was 0.5 to 5 µM.
As to `O=C(Nc1cc(Cl)c(-c2cccnc2)cc1F)N1[C@H]2CC[C@@H]1c1n[nH]c(=O)cc1C2` [Compound 136, (6S,9R)-N-(5-Chloro-2-fluoro-4-(pyridin-3-yl)phenyl)-3-oxo-3,5,6,7,8,9-hexahydro-2H-6,9-epiminocyclohepta[c]pyridazine-10-carboxamide], the 50% inhibitory concentration (IC50) is less than 0.5 µM.
As to `O=C(Nc1cc(Cl)c(-c2cncnc2)cc1F)N1[C@H]2CC[C@@H]1c1n[nH]c(=O)cc1C2` [Compound 137, (6S,9R)-N-(5-Chloro-2-fluoro-4-(pyrimidin-5-yl)phenyl)-3-oxo-3,5,6,7,8,9-hexahydro-2H-6,9-epiminocyclohepta[c]pyridazine-10-carboxamide], the half-maximal inhibitory concentration (IC50) under setting [1] was 0.5 to 5 µM.
As for `O=C(Nc1cc(Cl)c(-c2ccncc2F)cc1F)N1[C@H]2CC[C@@H]1c1n[nH]c(=O)cc1C2` [Compound 138, (6S,9R)-N-(5-Chloro-2-fluoro-4-(3-fluoropyridin-4-yl)phenyl)-3-oxo-3,5,6,7,8,9-hexahydro-2H-6,9-epiminocyclohepta[c]pyridazine-10-carboxamide], the IC50 was less than 0.5 µM.
Still for that read-out and setting: to `Cn1ncc(-c2cc(F)c(NC(=O)N3[C@H]4CC[C@@H]3c3n[nH]c(=O)cc3C4)cc2Cl)n1` [Compound 139, (6S,9R)-N-(5-Chloro-2-fluoro-4-(2-methyl-2H-1,2,3-triazol-4-yl)phenyl)-3-oxo-3,5,6,7,8,9-hexahydro-2H-6,9-epiminocyclohepta[c]pyridazine-10-carboxamide] belongs less than 0.5 µM.
For `O=C(Nc1cc(Cl)c(-c2ccc3n[nH]nc3c2)cc1F)N1[C@H]2CC[C@@H]1c1n[nH]c(=O)cc1C2` [Compound 140, (6S,9R)-N-(4-(2H-Benzo[d][1,2,3]triazol-5-yl)-5-chloro-2-fluorophenyl)-3-oxo-3,5,6,7,8,9-hexahydro-2H-6,9-epiminocyclohepta[c]pyridazine-10-carboxamide], under setting [1], the IC50 fell in the range of 0.5 to 5 µM.
As for `Cn1nnc2ccc(-c3cc(F)c(NC(=O)N4[C@H]5CC[C@@H]4c4n[nH]c(=O)cc4C5)cc3Cl)cc21` [Compound 141, (6S,9R)-N-(5-Chloro-2-fluoro-4-(1-methyl-1H-benzo[d][1,2,3]triazol-6-yl)phenyl)-3-oxo-3,5,6,7,8,9-hexahydro-2H-6,9-epiminocyclohepta[c]pyridazine-10-carboxamide], the IC50 was less than 0.5 µM.
Turning to `O=C1NCc2cc(-c3cc(F)c(NC(=O)N4[C@H]5CC[C@@H]4c4n[nH]c(=O)cc4C5)cc3Cl)ccc21` [Compound 142, (6S,9R)-N-(5-Chloro-2-fluoro-4-(1-oxoisoindolin-5-yl)phenyl)-3-oxo-3,5,6,7,8,9-hexahydro-2H-6,9-epiminocyclohepta[c]pyridazine-10-carboxamide], the IC50 under setting [1] was greater than 5 µM.
The same measure, in the same setting: to `O=C(Nc1cc(Cl)c(-c2cncn2C2CCCCO2)cc1F)N1[C@H]2CC[C@@H]1c1n[nH]c(=O)cc1C2` (stereo partly drawn) [Compound 143, (6S,9R)-N-(5-Chloro-2-fluoro-4-(1-(tetrahydro-2H-pyran-2-yl)-1H-imidazol-5-yl)phenyl)-3-oxo-3,5,6,7,8,9-hexahydro-2H-6,9-epiminocyclohepta[c]pyridazine-10-carboxamide] belongs 0.5 to 5 µM.
With `O=C(Nc1cc(Cl)c(-c2cnn(CC3CC3)c2)cc1F)N1[C@H]2CC[C@@H]1c1n[nH]c(=O)cc1C2` [Compound 144, (6S,9R)-N-(5-Chloro-4-(1-(cyclopropylmethyl)-1H-pyrazol-4-yl)-2-fluorophenyl)-3-oxo-3,5,6,7,8,9-hexahydro-2H-6,9-epiminocyclohepta[c]pyridazine-10-carboxamide], the IC50 is less than 0.5 µM.
For the compound `O=C(Nc1cc(Cl)c(-c2cnn(-c3ccncc3)c2)cc1F)N1[C@H]2CC[C@@H]1c1n[nH]c(=O)cc1C2` [Compound 145, (6S,9R)-N-(5-Chloro-2-fluoro-4-(1-(pyridin-4-yl)-1H-pyrazol-4-yl)phenyl)-3-oxo-3,5,6,7,8,9-hexahydro-2H-6,9-epiminocyclohepta[c]pyridazine-10-carboxamide], the IC50 is less than 0.5 µM.
In the case of `O=C1COc2ccc(-c3cc(F)c(NC(=O)N4[C@H]5CC[C@@H]4c4n[nH]c(=O)cc4C5)cc3Cl)cc2N1` [Compound 146, (6S,9R)-N-(5-Chloro-2-fluoro-4-(3-oxo-3,4-dihydro-2H-benzo[b][1,4]oxazin-6-yl)phenyl)-3-oxo-3,5,6,7,8,9-hexahydro-2H-6,9-epiminocyclohepta[c]pyridazine-10-carboxamide], the IC50 under setting [1] was 0.5 to 5 µM.
As for `CN1C(=O)COc2ccc(-c3cc(F)c(NC(=O)N4[C@H]5CC[C@@H]4c4n[nH]c(=O)cc4C5)cc3Cl)cc21` [Compound 147, (6S,9R)-N-(5-Chloro-2-fluoro-4-(4-methyl-3-oxo-3,4-dihydro-2H-benzo[b][1,4]oxazin-6-yl)phenyl)-3-oxo-3,5,6,7,8,9-hexahydro-2H-6,9-epiminocyclohepta[c]pyridazine-10-carboxamide], the IC50 was less than 0.5 µM.
On the same count and under the same terms, for `O=C(Nc1cc(Cl)c(-c2ccnc3[nH]ccc23)cc1F)N1[C@H]2CC[C@@H]1c1n[nH]c(=O)cc1C2` [Compound 148, (6S,9R)-N-(5-Chloro-2-fluoro-4-(1H-pyrrolo[2,3-b]345yridine-4-yl)phenyl)-3-oxo-3,5,6,7,8,9-hexahydro-2H-6,9-epiminocyclohepta[c]pyridazine-10-carboxamide] the value was 0.5 to 5 µM.
With `Cc1n[nH]c(C)c1-c1cc(F)c(NC(=O)N2[C@H]3CC[C@@H]2c2n[nH]c(=O)cc2C3)cc1Cl` [Compound 149, (6S,9R)-N-(5-Chloro-4-(3,5-dimethyl-1H-pyrazol-4-yl)-2-fluorophenyl)-3-oxo-3,5,6,7,8,9-hexahydro-2H-6,9-epiminocyclohepta[c]pyridazine-10-carboxamide], the IC50 under setting [1] was 0.5 to 5 µM.
As for `Cc1nn(C)c(C)c1-c1cc(F)c(NC(=O)N2[C@H]3CC[C@@H]2c2n[nH]c(=O)cc2C3)cc1Cl` [Compound 150, (6S,9R)-N-(5-Chloro-2-fluoro-4-(1,3,5-trimethyl-1H-pyrazol-4-yl)phenyl)-3-oxo-3,5,6,7,8,9-hexahydro-2H-6,9-epiminocyclohepta[c]pyridazine-10-carboxamide], the half-maximal inhibitory concentration (IC50) fell in the range of 0.5 to 5 µM.
